We go through 1 compound from ChEMBL document CHEMBL5726785, “TrkA kinase inhibitors, compositions and methods thereof” (2018).

The term IC50 denotes the concentration that gives 50% inhibition. A low value points to greater potency in that assay.

The assay has as its target High affinity nerve growth factor receptor (Homo sapiens, UniProt P04629). In words: TrkA Receptor : TrkA functional activity was measured using a DiscoverX PathHunter assay. In this assay, U2OS cells are express TrkA receptor as a fusion with the weakly complementing fragment of B-galactosidase, which DiscoverX calls “Prolink (PK)”; additionally, Shc1 is fused with a larger fragment, which is called “Enzyme Acceptor (EA)”. Activation of the TrkA receptor, upon NGF addition, results in the kinase domain being phosphorylated, resulting in subsequent recruitment of Shc1-EA protein. That recruitment results in an active B-galactosidase enzyme that is detected by addition of a chemiluminescent substrate.All reagents were purchased from DiscoverX, except for the receptor agonists (NGF, BDNF, NT3) which were purchased from Peprotech. Cells were expanded and frozen into cryovials (TrkA p75 @ passage 13, 1.5×10^7 cells/vial; TrkC p75 @ passage 11, 1.5×10^7 cells/vial in InVitrogen Recovery Cell Freezing media), and stored in the vapor phase of liquid nitrogen, and thawed immediately before use. Thawed cells were added to a 384-well plate (BD Falcon 384-well white/clear, TC surface 120 uL assay plates (353963), 20 uL of 0.375e6 cells/mL=>7500 cells/well), and allowed to incubate overnight. […].

High affinity nerve growth factor receptor, sequence (P04629 whole entry, the tested form may be a part): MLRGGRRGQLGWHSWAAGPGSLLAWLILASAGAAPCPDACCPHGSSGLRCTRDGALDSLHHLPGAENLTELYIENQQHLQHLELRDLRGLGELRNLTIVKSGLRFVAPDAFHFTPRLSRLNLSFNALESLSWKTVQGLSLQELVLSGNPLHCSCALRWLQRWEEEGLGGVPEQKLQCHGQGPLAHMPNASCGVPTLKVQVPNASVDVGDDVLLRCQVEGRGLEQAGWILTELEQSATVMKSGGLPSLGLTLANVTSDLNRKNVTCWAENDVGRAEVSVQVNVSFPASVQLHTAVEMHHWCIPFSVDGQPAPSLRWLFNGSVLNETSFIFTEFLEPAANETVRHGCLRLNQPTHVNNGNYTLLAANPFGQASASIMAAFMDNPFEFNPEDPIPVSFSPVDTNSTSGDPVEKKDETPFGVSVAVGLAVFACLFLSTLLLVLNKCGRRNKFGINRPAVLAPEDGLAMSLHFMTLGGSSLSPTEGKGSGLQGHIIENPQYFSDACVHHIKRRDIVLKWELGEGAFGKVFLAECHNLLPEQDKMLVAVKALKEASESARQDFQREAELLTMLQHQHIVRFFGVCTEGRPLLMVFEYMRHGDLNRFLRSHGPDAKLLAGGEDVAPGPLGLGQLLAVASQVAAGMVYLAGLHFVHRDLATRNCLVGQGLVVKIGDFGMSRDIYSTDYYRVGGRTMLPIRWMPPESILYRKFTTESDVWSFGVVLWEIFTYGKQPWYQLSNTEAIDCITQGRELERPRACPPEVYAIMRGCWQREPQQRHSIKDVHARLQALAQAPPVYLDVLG

Take `Cc1ncc(NC(=O)Nc2c(-c3ccccc3)[nH]c3ccccc23)c(-c2ccccc2)n1`: the half-maximal inhibitory concentration (IC50) was 570 nM.
